Tests used:
Prothrombin [1] = target: T1, Prothrombin (Homo sapiens, UniProt P00734); test: Concentration required for 50 percent inhibition of Prothrombin
Prothrombin [2] = target: T1, Prothrombin; test: The compound was evaluated for binding affinity against Prothrombin

In the case of `NCc1ccc(CNC(=O)[C@@H]2CC[C@H]3[C@@H](OCc4ccccc4)CCC(=O)N23)cc1`, the IC50 (Prothrombin [1]) is reported as 12.6 µM.
`C[C@]1(O)CC[C@@H]2CC[C@@H](C(=O)NCc3ccc(C(=N)N)cc3)N2C1=O` showed an IC50 (Prothrombin [1]) of 0.251 µM and a Ki (Prothrombin [2]) of 125 nM.
For `CO[C@H]1C[C@@](O)(Cc2ccccc2)C(=O)N2[C@H](C(=O)NCc3ccc(C(=N)N)cc3)CC[C@@H]12`, the IC50 (Prothrombin [1]) was 0.251 µM and the Ki (Prothrombin [2]) was 125 nM.
`N=C(N)c1ccc(CNC(=O)[C@@H]2CC[C@H]3CC[C@@](O)(Cc4ccccc4)C(=O)N32)cc1` gave an IC50 (Prothrombin [1]) of 0.02 µM and a Ki (Prothrombin [2]) of 9 nM.
With `O=C(NCC1CCNCC1)[C@@H]1CC[C@H]2[C@@H](OCc3ccccc3)CCC(=O)N12` the IC50 (Prothrombin [1]) was 12.6 µM.
In the case of `O=C(NCC1CCNCC1)[C@@H]1CC[C@H]2[C@@H](OCc3ccccc3)C[C@H](O)C(=O)N12`, the IC50 (Prothrombin [1]) is reported as 12.6 µM.
`NCc1ccc(CNC(=O)[C@@H]2CC[C@H]3[C@@H](OCc4ccccc4)C[C@H](O)C(=O)N23)cc1` gave an IC50 (Prothrombin [1]) of 12.6 µM.

Reference: ChEMBL document CHEMBL1133375, “Exploring the chiral space within the active site of alpha-thrombin with a constrained mimic of D-Phe-Pro-Arg--design, synthesis, inhibitory activity, and X-ray structure of an enzyme-inhibitor complex” (Bioorg Med Chem Lett, 2000)
